Results as given in PubChem BioAssay (NCI).
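Dose response: 5 concentrations. Exposure: 48 h. Format: 96-well plates. Endpoint: linear interpolation; highest concentration if not reached. Here, GI50 denotes the concentration required for 50% inhibition of growth. At the TGI there is no net growth.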

Assays:
Test in all cases: growth of human tumour cells (NCI), 48 h
A498 renal = tested on: A498 renal
A549 NSCLC = tested on: A549 NSCLC
CAKI-1 renal = tested on: CAKI-1 renal
CCRF-CEM leukemia = tested on: CCRF-CEM leukemia
DU-145 prostate = tested on: DU-145 prostate
EKVX NSCLC = tested on: EKVX NSCLC
HOP-62 NSCLC = tested on: HOP-62 NSCLC
HOP-92 NSCLC = tested on: HOP-92 NSCLC
HS 578T breast = tested on: HS 578T breast
K-562 leukemia = tested on: K-562 leukemia
LOX IMVI melanoma = tested on: LOX IMVI melanoma
MDA-MB-231 breast = tested on: MDA-MB-231 breast
MDA-MB-435 = tested on: MDA-MB-435
NCI-H226 lung = tested on: NCI-H226 lung
NCI/ADR-RES ovarian = tested on: NCI/ADR-RES ovarian
OVCAR-4 ovarian = tested on: OVCAR-4 ovarian
OVCAR-5 ovarian = tested on: OVCAR-5 ovarian
RPMI-8226 leukemia = tested on: RPMI-8226 leukemia
SF-268 CNS = tested on: SF-268 CNS
SK-MEL-2 melanoma = tested on: SK-MEL-2 melanoma
SK-OV-3 ovarian = tested on: SK-OV-3 ovarian
SNB-75 CNS = tested on: SNB-75 CNS
SR leukemia = tested on: SR leukemia
T-47D breast = tested on: T-47D breast
TK-10 renal = tested on: TK-10 renal
UACC-257 melanoma = tested on: UACC-257 melanoma

In the case of `COc1cc(/C=C/C(=O)c2ccc(C)cc2)ccc1Oc1nc(NCCO)nc(N2CCOCC2)n1`, the GI50 (A498 renal) is reported as over 100 µM, the TGI (A498 renal) is reported as over 100 µM and the GI50 (A549 NSCLC) is reported as 9.47 µM. For the same molecule, the TGI (A549 NSCLC) was over 100 µM, the GI50 (CAKI-1 renal) was 5.02 µM and the TGI (CAKI-1 renal) was over 100 µM. The GI50 (CCRF-CEM leukemia) was 2.71 µM, the TGI (CCRF-CEM leukemia) was over 100 µM and the GI50 (DU-145 prostate) was 3.79 µM. The TGI (DU-145 prostate) was over 100 µM, the GI50 (EKVX NSCLC) was 3.9 µM and the TGI (EKVX NSCLC) was over 100 µM. It also gave a GI50 (HOP-62 NSCLC) of 16.6 µM, a TGI (HOP-62 NSCLC) of over 100 µM and a GI50 (HOP-92 NSCLC) of 8.4 µM. It also gave a TGI (HOP-92 NSCLC) of over 100 µM, a GI50 (HS 578T breast) of 4.6 µM and a TGI (HS 578T breast) of over 100 µM. For the same molecule, the GI50 (K-562 leukemia) was 1.53 µM, the TGI (K-562 leukemia) was over 100 µM and the GI50 (LOX IMVI melanoma) was 0.43 µM. For the same molecule, the TGI (LOX IMVI melanoma) was 1.5 µM, the GI50 (MDA-MB-231 breast) was 2.98 µM and the TGI (MDA-MB-231 breast) was over 100 µM. For the same molecule, the GI50 (MDA-MB-435) was 3.31 µM, the TGI (MDA-MB-435) was over 100 µM and the GI50 (NCI-H226 lung) was 6.28 µM. For the same molecule, the TGI (NCI-H226 lung) was over 100 µM, the GI50 (NCI/ADR-RES ovarian) was 2.08 µM and the TGI (NCI/ADR-RES ovarian) was 4.57 µM. It also gave a GI50 (OVCAR-4 ovarian) of 3.92 µM, a TGI (OVCAR-4 ovarian) of over 100 µM and a GI50 (OVCAR-5 ovarian) of 3.22 µM. The TGI (OVCAR-5 ovarian) was over 100 µM, the GI50 (RPMI-8226 leukemia) was 1.72 µM and the TGI (RPMI-8226 leukemia) was 6.02 µM. It also gave a GI50 (SF-268 CNS) of 2.9 µM, a TGI (SF-268 CNS) of over 100 µM and a GI50 (SK-MEL-2 melanoma) of 8.17 µM. For the same molecule, the TGI (SK-MEL-2 melanoma) was over 100 µM, the GI50 (SK-OV-3 ovarian) was 23 µM and the TGI (SK-OV-3 ovarian) was over 100 µM. For the same molecule, the GI50 (SNB-75 CNS) was over 100 µM, the TGI (SNB-75 CNS) was over 100 µM and the GI50 (SR leukemia) was 1.06 µM. It also gave a TGI (SR leukemia) of 7.16 µM, a GI50 (T-47D breast) of 2.98 µM and a TGI (T-47D breast) of over 100 µM. It also gave a GI50 (TK-10 renal) of over 100 µM, a TGI (TK-10 renal) of over 100 µM and a GI50 (UACC-257 melanoma) of 3.98 µM. It also gave a TGI (UACC-257 melanoma) of over 100 µM.
